Source: PubChem BioAssay AID2060358 (Molecular Pharmacology Branch, DTP, NCI, 2025)
Calls of active or inactive are those of the source. How the source made its calls: active means viability on the fitted dose curve at most 10% of control; inactive means the rest.

Tested on: 254851-301-R-J1-PDC spheroids, viability % test/control
Assay: Anticancer human tumor 254851-301-R-J1-PDC patient-derived colon carcinoma cell line growth inhibition [TAK]
Settings: spheroids with HUVEC and MSC; for IC50: curve of first compound; for viability, T/C: stronger effect = lower value
Description: Combinatorial screen of targeted agents with TAK-243 and ipatasertib in multi-cell type tumor spheroids
A high-throughput screen of multi-cell type tumor spheroids was designed to identify active combinations of targeted small molecules and TAK-243 or ipatasertib. Complex spheroids include a stromal component modeled by human endothelial cells (HUVEC) and fibroblasts modeled by human mesenchymal stem cells (MSCs). The concentration ranges selected for each drug and investigational agent were based upon clinically achievable concentrations if the clinical Cmax of the agent was known.
Compounds. The drugs and investigational agents: TAK-243 (785004), ipatasertib (767898), everolimus (733504), selumetinib (741078), bortezomib (756655), trametinib (758246), ixazomib (758254), vemurafenib (761431), dabrafenib (764134), sapanisertib (764658), alpelisib (765974), and copanlisib (816437), were obtained from the National Cancer Institute (NCI) Developmental Therapeutics Program Chemical Repository. The FDA-approved anticancer drug set is available from the NCI Developmental Therapeutics Program. […] The stock solutions were prepared in dimethyl sulfoxide (DMSO, Sigma-Aldrich, St. Louis, MO, cat. D2650) at 800-fold the tested concentration and stored at -70 degrees C prior to their use. All drugs and investigational agents were tested over a range starting from a high concentration at or near the clinical Cmax and decreasing in half-log increments. If the clinical Cmax for an agent had not been determined, the highest concentration tested was 10 microM.
NCI60 Cell Culture. NCI60 cell lines were obtained from the NCI Developmental Therapeutics Program Tumor Repository. For each lot of cells, the Repository performed Applied Biosystems AmpFLSTR Identifiler testing with PCR amplification to confirm consistency with the published Identifier STR profile for each cell line. Cells were kept in continuous culture for no more than 20 passages. The optimal seeding densities for each of the cell lines at each time point assessed were determined prior to performing the concentration response studies. Briefly, the NCI60 human tumor lines were grown as monolayers in RPMI 1640 medium supplemented with 10% FBS and 2 mmol/L L-glutamine.
An additional 2 lines were from the NCI60 cell line panel including melanomas, MALME-3M and SK-MEL-2. Pooled donor human umbilical vein endothelial cells (HUVEC, Lonza, cat. CC-2519) and human mesenchymal stem cells (hMSC, Lonza, cat. PT-2501) were purchased from Lonza (Walkersville, MD).
PDMR cell lines were grown in complete medium (DC medium): Dulbecco's modified Eagle's medium (DMEM)/F12 supplemented with 5% fetal bovine serum (FBS), 2 mM L-glutamine, 100 U/mL penicillin and 100 µg/ml streptomycin, 0.4 µg/ml hydrocortisone, 10 ng/ml epidermal growth factor (EGF) recombinant human protein, 24 µg/mL adenine, and 0.1 mg/mL primocin. During culture from frozen stock vials, PDMR cells were cultured in the same medium containing 10 µM Y-27632 (see Table 3). The PDCs were cultured in complete DMEM/F12 media without 10 microM Y-27632 dihydrochloride for at least two passages prior to the screen. The pooled donor HUVEC and hMSC were cultured in endothelial cell growth medium 2 (PromoCell, Heidelberg, Germany, cat. C-22011) and mesenchymal stem cell growth medium 2 (PromoCell, cat. C-28009), respectively. For all experiments, HUVEC and hMSC were used at passages </=5.
For the pre-screen, cell seeding densities were determined from a titration spanning the range from 5,000 to 313 cells per well. The mct-spheroids including 60% malignant cells, 25% HUVEC and 15% MSC dispensed as a mixture into U-bottom Ultra-Low Attachment 384-well plates (Corning, NY)
High-throughput Drug Combination Screening.
Prior to their inoculation into 384-well plates, malignant cells, HUVEC, and hMSC were removed from T flasks using TrypLE express (Thermo Fisher Scientific, cat. 12605036) and harvested by centrifugation for 5 min at 233 x g. […]
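Wherever IC50 is given: spheroids exposed to drugs for seven days before viability readout.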
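Wherever viability, T/C is given: spheroids exposed to drugs for seven days before viability readout.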

COC1CC2CCC(C)C(O)(O2)C(=O)C(=O)N2CCCCC2C(=O)OC(C(C)CC2CCC(OCCO)C(OC)C2)CC(=O)C(C)C=C(C)C(O)C(OC)C(=O)C(C)CC(C)C=CC=CC=C1C (stereo not given) + CC(C)NCC(C(=O)N1CCN(c2ncnc3c2C(C)CC3O)CC1)c1ccc(Cl)cc1
IC50 (second compound 0.3 µM): > 100 nM
IC50 (second compound 0.949 µM): > 100 nM
IC50 (second compound 3 µM): > 100 nM
IC50 (second compound 9.49 µM): > 100 nM
IC50 (second compound 30 µM): > 100 nM
viability, T/C (second compound 0.3 µM, first compound 0.000316 µM): 108%
viability, T/C (second compound 0.3 µM, first compound 0.001 µM): 117%
viability, T/C (second compound 0.3 µM, first compound 0.00316 µM): 99.9%
viability, T/C (second compound 0.3 µM, first compound 0.01 µM): 99.2%
viability, T/C (second compound 0.3 µM, first compound 0.0316 µM): 96.8%
viability, T/C (second compound 0.3 µM, first compound 0.1 µM): 91.7%
viability, T/C (second compound 0.949 µM, first compound 0.000316 µM): 115%
viability, T/C (second compound 0.949 µM, first compound 0.001 µM): 110%
viability, T/C (second compound 0.949 µM, first compound 0.00316 µM): 100%
viability, T/C (second compound 0.949 µM, first compound 0.01 µM): 104%
viability, T/C (second compound 0.949 µM, first compound 0.0316 µM): 88.1%
viability, T/C (second compound 0.949 µM, first compound 0.1 µM): 91.4%
viability, T/C (second compound 3 µM, first compound 0.000316 µM): 102%
viability, T/C (second compound 3 µM, first compound 0.001 µM): 112%
viability, T/C (second compound 3 µM, first compound 0.00316 µM): 97%
viability, T/C (second compound 3 µM, first compound 0.01 µM): 94.2%
viability, T/C (second compound 3 µM, first compound 0.0316 µM): 92.1%
viability, T/C (second compound 3 µM, first compound 0.1 µM): 95.3%
viability, T/C (second compound 9.49 µM, first compound 0.000316 µM): 90.7%
outcome (second compound 9.49 µM, first compound 0.001 µM): inactive
viability, T/C (second compound 9.49 µM, first compound 0.00316 µM): 98%
viability, T/C (second compound 9.49 µM, first compound 0.01 µM): 95%
viability, T/C (second compound 9.49 µM, first compound 0.0316 µM): 96.2%
viability, T/C (second compound 9.49 µM, first compound 0.1 µM): 85.1%
viability, T/C (second compound 30 µM, first compound 0.000316 µM): 82.7%
viability, T/C (second compound 30 µM, first compound 0.001 µM): 95.2%
viability, T/C (second compound 30 µM, first compound 0.00316 µM): 86.4%
viability, T/C (second compound 30 µM, first compound 0.01 µM): 77%
viability, T/C (second compound 30 µM, first compound 0.0316 µM): 76.4%
viability, T/C (second compound 30 µM, first compound 0.1 µM): 77.2%

Cn1cnc2c(F)c(Nc3ccc(Br)cc3Cl)c(C(=O)NOCCO)cc21 + CC(C)NCC(C(=O)N1CCN(c2ncnc3c2C(C)CC3O)CC1)c1ccc(Cl)cc1
IC50 (second compound 0.3 µM): 1600 nM
IC50 (second compound 0.949 µM): 1610 nM
IC50 (second compound 3 µM): 1630 nM
IC50 (second compound 9.49 µM): 1540 nM
IC50 (second compound 30 µM): 1410 nM
viability, T/C (second compound 0.3 µM, first compound 0.00949 µM): 110%
viability, T/C (second compound 0.3 µM, first compound 0.03 µM): 120%
viability, T/C (second compound 0.3 µM, first compound 0.0949 µM): 110%
viability, T/C (second compound 0.3 µM, first compound 0.3 µM): 108%
viability, T/C (second compound 0.3 µM, first compound 0.949 µM): 77.5%
viability, T/C (second compound 0.3 µM, first compound 3 µM): 16.6%
viability, T/C (second compound 0.949 µM, first compound 0.00949 µM): 111%
viability, T/C (second compound 0.949 µM, first compound 0.03 µM): 108%
viability, T/C (second compound 0.949 µM, first compound 0.0949 µM): 118%
viability, T/C (second compound 0.949 µM, first compound 0.3 µM): 88.7%
viability, T/C (second compound 0.949 µM, first compound 0.949 µM): 78.9%
viability, T/C (second compound 0.949 µM, first compound 3 µM): 19.6%
viability, T/C (second compound 3 µM, first compound 0.00949 µM): 101%
viability, T/C (second compound 3 µM, first compound 0.03 µM): 118%
viability, T/C (second compound 3 µM, first compound 0.0949 µM): 115%
viability, T/C (second compound 3 µM, first compound 0.3 µM): 105%
viability, T/C (second compound 3 µM, first compound 0.949 µM): 79.1%
viability, T/C (second compound 3 µM, first compound 3 µM): 17.6%
viability, T/C (second compound 9.49 µM, first compound 0.00949 µM): 103%
viability, T/C (second compound 9.49 µM, first compound 0.03 µM): 114%
viability, T/C (second compound 9.49 µM, first compound 0.0949 µM): 112%
viability, T/C (second compound 9.49 µM, first compound 0.3 µM): 102%
viability, T/C (second compound 9.49 µM, first compound 0.949 µM): 75.2%
viability, T/C (second compound 9.49 µM, first compound 3 µM): 15.3%
viability, T/C (second compound 30 µM, first compound 0.00949 µM): 84.6%
viability, T/C (second compound 30 µM, first compound 0.03 µM): 92.4%
viability, T/C (second compound 30 µM, first compound 0.0949 µM): 105%
viability, T/C (second compound 30 µM, first compound 0.3 µM): 83.9%
viability, T/C (second compound 30 µM, first compound 0.949 µM): 72.4%
viability, T/C (second compound 30 µM, first compound 3 µM): 8.88%
